Reference: US4069346A, “Compositions and methods for anesthetizing an animal using deuterated analogues of halothane and chloroform” (The Dow Chemical Company, priority 1977, dated 1978)

Key:
male Fischer 344 rats [1] = conditions: 0.36 percent (v/v), two hours
Experimental: Halothane and deuterated halothane were vaporized by metering the liquid compounds at a controlled rate into a temperature regulated vaporization flask held at 150° C. The vapor was swept into the air inlet of a 30 liter glass exposure chamber at a rate of 6 liters/minute. The concentration of the anesthetic in the exposure chamber was monitored by gas-liquid chromatography using direct gas sampling loops.
Using the same equipment to expose the animals as that of Example 2, three groups of 10 male Fischer 344 rats were exposed to room air, 0.36 percent (v/v) chloroform and 0.36 percent (v/v) deuterated chloroform for two hours. The animals were maintained two to a cage for 24 hours following the exposure. At the end of this period, the animals were decapitated and blood was collected in plastic centrifuge tubes and allowed to clot. The SGPT levels were determined using a commercially available method. SGPT concentrations of each group of animals were compared with the other groups by nonparametric analysis of variance.

liver [2] = conditions: cited from earlier work; for damage to the liver: literature: Anesth. 45, 622 (1976) and 43, 392 (1975)
liver [3] = test: Relative hepatotoxicity of chloroform: serum glutamic-pyruvic transaminase (SGPT) level as indicator of liver damage after inhalation (Example 3); type: in vivo, male Fischer 344 rats; conditions: 0.36 percent (v/v); for SGPT level: inhaled two hours, blood collected after 24 hours, room air control 24.8 mμ/ml ± 2, groups of 10
Description: (§1) Appl. Pharmacol., 9, 139-151 (1966), which used the serum glutamic-pyruvic transaminase (SGPT) level as an indicator of liver damage.

liver [4] = test: SGPT as indication of liver toxicity after anesthesia with halothane and deuterated halothane (Example 4); type: in vivo, Fischer 344 rats; conditions: 1 percent (v/v) in air, two hours; for SGPT levels, comparison with the control: 24 hours; for SGPT: blood collected after 24 hours, control 18.8
Experimental: as §1
Using the same techniques as described in Example 3 above, Fischer 344 rats were anesthetized for two hours with halothane and deuterated halothane using an anesthetic concentration of 1 percent (v/v) in air. After 24 hours, the animals were sacrificed and the blood collected from each. SGPT was run on each blood sample as in indication of liver toxicity.

male Fischer 344 rats [5] = test: Anesthetic properties on inhalation, halothane vs deuterated analogue (Example 2); type: in vivo; conditions: 0.75 volume/volume, 2 hours
Experimental: (§2) Three groups of 6 male Fischer 344 rats (6 months of age, 200-300 grams) were exposed to room air and 0.75 volume/volume halothane or the deuterated analogue for a period of 2 hours. Following exposure, all animals were maintained for 72 hours. […] The serum inorganic bromide concentration was determined using a specific ion electrode (Orion).

[6] = Serum inorganic bromide concentration 72 hours after inhalation exposure; type: in vivo, male Fischer 344 rats; conditions: 0.75 volume/volume, inhaled 2 hours, analysis of variance
Experimental: as §2

Compound | anesthetic properties, difference between chloroform and deuterated chloroform (male Fischer 344 rats [1]) | damage to the liver (liver [2]) | SGPT level (liver [3]) [mμ/ml] | SGPT levels, comparison with the control (liver [4]) | SGPT (liver [4]) [mμ/ml] | anesthetic properties, difference between halothane and the deuterated analogue (male Fischer 344 rats [5]) | SGPT level, difference between chloroform and deuterated chloroform treated groups (liver [3]; two hours, 24 hours, nonparametric analysis of variance) | inorganic bromide in the blood (liver [2]; literature: Anesthes. 44, 194 (1976)) | serum bromide levels, comparison of halothane with deuterated halothane [6]
ClC(Cl)Cl [chloroform] | no difference in the anesthetic properties | in some instances they cause damage to the liver | 56.3 | – | – | – | – | – | –
[2H]C(Cl)(Br)C(F)(F)F (stereo not drawn) [deuterated halothane, 2-bromo-2-chloro-1,1,1-trifluoroethane-d] | – | – | – | not significantly different from the control | 19.6 | No difference in anesthetic properties | – | – | –
[2H]C(Cl)(Cl)Cl [deuterated chloroform] | no difference in the anesthetic properties | – | 38.3 | – | – | – | significant at p<0.05 | – | –
FC(F)(F)C(Cl)Br (stereo not drawn) [halothane, 2-bromo-2-chloro-1,1,1-trifluorethane] | – | in some instances they cause damage to the liver | – | significant increase in SGPT levels | 24.0 | No difference in anesthetic properties | – | elevation of inorganic bromide in the blood | significantly higher than those treated with deuterated halothane, p<0.01
